Results from patent US9370547B2, “Compositions and methods for treating ischemia” (UNIVERSITY OF KENTUCKY RESEARCH FOUNDATION, priority 2014, dated 2016).

Tests used:
[1] = cited from earlier work
[2] = test system: WT mice after MCAo; details: mouse, in vivo
[3] = test system: claudin-5 expression in mouse brain endothelial cells; test: Claudin-5 western blot and immunocytochemistry in brain endothelial cells after OGD; assay type: cell-based
Description: FIG. 11A includes a claudin-5 western blot of brain endothelial cells after OGD that were treated as labeled.
FIG. 11B includes plot showing the quantification of claudin-5 expression normalized to Ponceau S total protein stain for the samples show in FIG. 11A.
FIG. 11C includes images showing claudin-5 immunocytochemistry of WT mouse brain endothelial cells either just prior to (control) or 24 hours after OGD treated as labeled. Scale bar is 5 μm.

Substance | serum half-life ([1]; for some subjects) [h] | tissue distribution ([1]; in vivo) | safety of intravenous administration ([1]; intravenous) | animal vital signs upon administration [2] | tolerability (signs of illness such as fur ruffling, weight differences) [2] | claudin-5 levels compared with ATN-161 and normoxic control [3]
Ac-PHSCN-NH2 [ATN-161] | 3 to 5 | high tissue distribution | can be safely administered intravenously | did not alter animal vital signs | well tolerated | 
Ac-PhScN—NH2 |  |  |  |  |  | more effective than ATN-161
